Patent US20250235498A1, “METHODS OF TREATING OR PREVENTING RESPIRATORY DISEASE WITH HOUTTUYNIA CORDATA THUNB-BASED AEROSOL INHALATION THERAPY” (National Sun Yat-sen University, priority 2024, published 2025)

System: cytokine and chemokine in bronchoalveolar lavage fluid (BALF)
Test: Ovalbumin (OVA)-sensitized phenol-induced COPD animal model, cytokine and chemokine detection in BALF
Format: in vivo, Female BALB/c ByJNarl mice
Settings: OVA-sensitized mice exposed to phenol aqueous aerosols for 3 weeks, aerosol inhalation; FIG. 3
Method: Four types of aerosol drugs with varying formulation are separately named as drug A, drug B, drug C and NAC. Drug A, drug B and drug C are mainly composed by Houttuynia Cordata Thunb aqueous extract. Drug A (HCA-A) is pure Houttuynia Cordata Thunb aqueous extract. Drug B (HCA-B) is comprised of Houttuynia Cordata Thunb aqueous extract and 500 μM GSH, while Drug C (HCA-C) is comprised of Houttuynia Cordata Thunb aqueous extract, 500 µM GSH and 500 μM BP. NAC is a mucolytic and antioxidant drug already prevalently used in clinic that are known to modulate several pathways of inflammation. NAC is used here as the positive control to compare the efficacy of aerosol formulation of Houttuynia Cordata Thunb in this study.
The OVA-sensitized mice were firstly placed in a custom-built 40 cm×40 cm×30 cm whole-body acrylic exposure chamber, which was filled and continuously replenished with phenol aqueous aerosols (PAA) for 30 minutes, twice per day for three consecutive weeks. PAA were prepared by atomizing 0.25M aqueous phenol solution via a high flow, liquid-feed atomizer (Model 9306, TSI).
Female BALB/c ByJNarl mice (age: 6-8 weeks, weight: 20-25 g) were purchased from National Laboratory Animal Center (NLAC, NARLabs, Taiwan) and approved by the Institutional Animal Care and Use Committee (IACUC) for the experiment of phenol aerosol exposure and inhalation therapy on OVA-treated mice. […]

CC(=O)N[C@@H](CS)C(=O)O [NAC, N-Acetylcysteine]
Interleukin 1α (IL-1α) level in BALF: did not show apparent reduction
